# According to patent US5620959A, “Bombesin antagonists” (Glaxo Wellcome Inc., priority 1990, dated 1997):
# Biological target: 3T3 ROZ cells (Mus musculus, UniProt P21729)
# Experiment: Inhibition of bombesin-stimulated mitogenesis (3H-thymidine uptake) of quiescent 3T3 ROZ cells
# Type: cell-based
# Conditions: compared with the peptide from the other stereoisomer at the hydroxy position; test not named at b235
# Method: Antagonistic activity was measured by inhibition of the mitogenic stimulation of quiescent 3T3 ROZ cells. […] Cells were incubated for eighteen hours with 10 ng/mL of BN either alone or in the presence of an antagonist. Cells were then pulsed-labeled for 2 hours with ^3 H-thymidine and washed. The incorporated ^3 H was then counted.
# Potency of antagonists was measured by inhibition of this maximum response down to baseline level. IC50 values were determined from titration curves.
# Chain of 3T3 ROZ cells (P21729 whole entry): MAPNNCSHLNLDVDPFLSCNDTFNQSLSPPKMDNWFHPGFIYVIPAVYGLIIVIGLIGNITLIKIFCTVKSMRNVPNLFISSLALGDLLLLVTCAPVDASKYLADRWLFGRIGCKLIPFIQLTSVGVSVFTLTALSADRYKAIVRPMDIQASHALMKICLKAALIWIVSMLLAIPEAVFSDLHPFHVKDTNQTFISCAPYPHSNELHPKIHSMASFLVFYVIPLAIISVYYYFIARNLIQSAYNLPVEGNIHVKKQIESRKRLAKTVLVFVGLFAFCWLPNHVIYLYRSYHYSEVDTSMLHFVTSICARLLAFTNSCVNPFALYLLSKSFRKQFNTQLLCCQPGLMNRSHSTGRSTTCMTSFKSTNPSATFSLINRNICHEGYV
structure (smiles),measurement,value
"CC(C)[C@H](NC(=O)[C@H](C)NC(=O)[C@H](Cc1c[nH]c2ccccc12)NC(=O)[C@H](Cc1c[nH]cn1)NC(=O)CCc1ccccc1)C(=O)N[C@H](C)C(=O)N[C@@H](Cc1c[nH]cn1)C(=O)N1CCC[C@@H]1C(O)CC(=O)N[C@@H](Cc1ccccc1)C(N)=O (single isomer, unassigned) [N--((3-Phenyl)Propionyl)--HisTrpAlaVal D--AlaHis(3-(2-Pyrrolidinyl-3Hydroxy)Propionyl)--Phe--NH2]",relative activity of the two peptides made from the two hydroxy stereoisomers,the more active of the two
